We go through 17 molecules from ChEMBL document CHEMBL1201862, “PubChem BioAssay data set” (2004).

Structures are written as SMILES.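 Values below derive from 48-hour exposures of cells grown in 96-well plates, with endpoints linearly interpolated between the two concentrations bracketing the appropriate inhibition level. At the GI50, growth is halved.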 The source made the active and inactive calls. Cut-off read from the data, not from the text of the source: active = GI50 up to about 1.1 µM and inactive = higher.

Test systems include OVCAR-5; M19-MEL; DLD-1; K562; A498; TK-10; ACHN; HOP-62; CAKI-1; KM-20L2; COLO 205; MCF7; 786-0; DU-145; MDA-MB-435; PC-3; Hs-578T; MDA-MB-231; T47D; MDA-N.
Common to all, as to assay: growth of human tumour cells (NCI), 48 h

`Cc1cccc(NC(N)=S)c1`: the GI50 in the test with OVCAR-5, in the test with M19-MEL, in the test on DLD-1, in the test with K562, with A498 and in the test with TK-10 was > 100 µM (inactive) in each case. In addition, the GI50 with ACHN and in the test on HOP-62 was > 100 µM (inactive) each time.

In the case of `COc1c2c(c3ccccc3c1O)C1C=CC2C1` (stereo unspecified), the GI50 in the test on CAKI-1 is 17.1 µM (inactive); in the test with KM-20L2, 22.3 µM (inactive); in the test with OVCAR-5, 18.7 µM (inactive); with M19-MEL it was 2.32 µM (inactive); in the test on DLD-1, 13.3 µM (inactive); in the test on K562, 3.85 µM (inactive). In addition, the GI50 with COLO 205 was 16.1 µM (inactive); in the test with TK-10, 22.3 µM (inactive); in the test on ACHN, 14.4 µM (inactive); in the test on HOP-62, 16.1 µM (inactive).

In the case of `COC(=O)C1=C(C)N2CCSC2(C)C(C(=O)OC)C1c1cccc(Cl)c1` (stereo unspecified), the GI50 was 14 µM (inactive) with CAKI-1; 17.5 µM (inactive) in the test with KM-20L2; 16 µM (inactive) in the test with M19-MEL; 17.5 µM (inactive) in the test with K562; 18.5 µM (inactive) in the test on COLO 205; 41.9 µM (inactive) in the test with TK-10. In addition, the values for the GI50 with ACHN and in the test with HOP-62 were 24.8 µM (inactive) and 18.9 µM (inactive), respectively.

For `O=C(O)C(Br)Cc1ccc2c(c1)OCO2` (stereo unspecified), the GI50 is > 100 µM (inactive) with CAKI-1; > 100 µM (inactive) with KM-20L2; > 100 µM (inactive) in the test on OVCAR-5; 69.2 µM (inactive) in the test with M19-MEL; > 100 µM (inactive) in the test with DLD-1; > 100 µM (inactive) in the test on K562. Besides, the GI50 with COLO 205 is 55.7 µM (inactive); with A498, 47.2 µM (inactive); in the test on ACHN it was > 100 µM (inactive); with HOP-62, > 100 µM (inactive).

In the case of `Oc1cc2cc(O)nc(O)c2c(O)n1`, the GI50 in the test on CAKI-1, in the test on KM-20L2, in the test on OVCAR-5, in the test with M19-MEL, in the test on DLD-1 and in the test on K562 was > 100 µM (inactive) throughout. Further, the GI50 in the test with COLO 205, with A498, in the test with TK-10 and in the test with HOP-62 was > 100 µM (inactive) each time.

Consider `C[C@H](N)C(=O)N[C@@H]1[C@H]2C(=C(O)C[C@@H](O)[C@@H]2O)C(=O)O[C@@H]1C`, for which the GI50 in the test on CAKI-1, in the test with MCF7, with KM-20L2, with OVCAR-5, with M19-MEL and in the test on DLD-1 was > 100 µM (inactive) in each case. Moreover, the GI50 in the test with K562, with COLO 205, with A498 and with HOP-62 was > 100 µM (inactive) throughout.

Take `CCCN(CCC)C1=Nc2ccccc2-n2cnnc2C1`: the GI50 with 786-0, in the test on KM-20L2, with OVCAR-5, in the test with M19-MEL, with K562 and in the test on COLO 205 was > 100 µM (inactive) each time. Also, the GI50 in the test with TK-10, with ACHN and in the test with HOP-62 was > 100 µM (inactive) in each case.

As for `COC1=C(C)C(=O)C2=C(C1=O)[C@@H]1[C@@H]3Cc4c(OC(=O)CO)c(C)c(OC)c(O)c4[C@H](CNC(=O)C(C)=O)N3[C@@H](C#N)[C@H](C2)N1C`, the GI50 in the test with CAKI-1 is < 0.01 µM (active); in the test on MCF7, 0.0332 µM (active); in the test on KM-20L2, 0.0466 µM (active); in the test with OVCAR-5, 0.098 µM (active); with M19-MEL, < 0.0171 µM (active); with DLD-1, 0.0115 µM (active). The GI50 with K562 is < 0.01 µM (active); with COLO 205, < 0.0155 µM (active); with A498, 0.0959 µM (active); in the test with HOP-62, 0.221 µM (active).

Consider `COc1ccc(C2=NN(C(=O)c3ccc(Cl)cc3)C(O)(c3cc(F)c(Cl)cc3Cl)C2)cc1` (stereo unspecified), for which the GI50 in the test with DU-145 was > 100 µM (inactive); in the test with CAKI-1, 27.4 µM (inactive); in the test on MCF7, 19 µM (inactive); in the test with 786-0 it was > 100 µM (inactive); with MDA-MB-435, 18.6 µM (inactive); in the test on OVCAR-5 it was > 100 µM (inactive). Further, the GI50 was 61.9 µM (inactive) in the test with PC-3; > 100 µM (inactive) in the test with Hs-578T; > 100 µM (inactive) in the test on MDA-MB-231; 40.6 µM (inactive) in the test on K562; 57.7 µM (inactive) in the test on T47D; 93.5 µM (inactive) with COLO 205. For the same molecule, the GI50 was 71.6 µM (inactive) in the test on A498; > 100 µM (inactive) in the test with TK-10; > 100 µM (inactive) with ACHN; 22.4 µM (inactive) with MDA-N; > 100 µM (inactive) in the test on HOP-62.

Take `COc1cc(CNc2nc3c(NC(C)=O)cc(C(F)(F)F)cc3nc2-c2ccccc2)cc(OC)c1OC`: the GI50 in the test with CAKI-1, with KM-20L2, with OVCAR-5, in the test with M19-MEL, with DLD-1 and in the test with K562 was > 100 µM (inactive) throughout. For the same molecule, the GI50 with COLO 205, with TK-10, in the test with ACHN and in the test on HOP-62 was > 100 µM (inactive) each time.

Turning to `CC[N+]1(C)CCC(O)(c2ccccc2)C(C(=O)c2ccccc2)C1` (stereo unspecified), the GI50 is 22.1 µM (inactive) with DU-145; 4.14 µM (inactive) in the test with CAKI-1; 2.73 µM (inactive) in the test on MCF7; 5.89 µM (inactive) with 786-0; 19.5 µM (inactive) in the test on KM-20L2; 17.9 µM (inactive) with MDA-MB-435. The GI50 was 17.9 µM (inactive) in the test on OVCAR-5; 18.4 µM (inactive) in the test with M19-MEL; 17.9 µM (inactive) in the test on PC-3; 7.93 µM (inactive) in the test with DLD-1; 24 µM (inactive) with Hs-578T; 17.2 µM (inactive) with MDA-MB-231. Moreover, the GI50 with K562 is 2.11 µM (inactive); in the test on T47D it was 16.9 µM (inactive); in the test with COLO 205, 9.38 µM (inactive); with A498 it was 16.1 µM (inactive); in the test on TK-10, 15.7 µM (inactive); with ACHN, 10.1 µM (inactive). Besides, the GI50 in the test on HOP-62 was 22 µM (inactive).

Regarding `O=C(O)c1c[nH]c2c(=O)[nH]cnc12`, the GI50 with CAKI-1, in the test on 786-0, with OVCAR-5, in the test on M19-MEL, in the test with DLD-1 and with K562 was > 100 µM (inactive) throughout. Also, the GI50 in the test with COLO 205, in the test with TK-10, in the test with ACHN and in the test on HOP-62 was > 100 µM (inactive) each time.

As for `O=C(Nc1c(Cl)cc([N+](=O)[O-])cc1Cl)/C(=N\Nc1cccc(Cl)c1)c1c(O)c2ccccc2oc1=O`, the GI50 in the test with 786-0 is > 100 µM (inactive); with KM-20L2 it was > 100 µM (inactive); in the test on OVCAR-5, 31.3 µM (inactive); in the test with M19-MEL, > 100 µM (inactive); in the test on DLD-1 it was 42.9 µM (inactive); in the test on K562, 65.9 µM (inactive). Moreover, the GI50 in the test on COLO 205 was > 100 µM (inactive); in the test with A498, 21.2 µM (inactive); with TK-10, > 100 µM (inactive); in the test with ACHN, 49.2 µM (inactive); in the test on HOP-62 it was 74 µM (inactive).

`CC1[C@@]2(O[C@@H]3C=C4C5CCC6Cc7nc8c(nc7C[C@@]6(C)C5C[C@H](O)[C@@]4(C)[C@]13O)CC1CCc3c(cc4c5c3C(O)C[C@H]5[C@@H](C)C3(O4)OC(C)(C)CC3O)[C@]1(C)C8)O[C@@](C)(CO)C[C@@H]2O` (stereo partly specified): the GI50 was 0.659 µM (active) in the test on CAKI-1; 0.21 µM (active) in the test on MCF7; 0.37 µM (active) in the test with KM-20L2; 0.618 µM (active) with OVCAR-5; 2.28 µM (inactive) in the test with M19-MEL; 1.79 µM (inactive) in the test with DLD-1. Further, the GI50 in the test with K562 was 0.259 µM (active); with COLO 205, 0.57 µM (active); in the test with A498 it was 0.129 µM (active); with HOP-62, 0.102 µM (active).

On to `COC1=CC(C2c3cc4c(cc3[C@@H](Nc3ccc([N+](=O)[O-])cc3)C3COC(=O)[C@H]23)OCO4)=CC(=O)C1=O` (stereo partly specified), for which the GI50 with CAKI-1 was 2.64 µM (inactive); in the test with 786-0, 1.83 µM (inactive); in the test on KM-20L2, 9.1 µM (inactive); with OVCAR-5, 5.53 µM (inactive); in the test with M19-MEL, 6.4 µM (inactive); with DLD-1 it was 14 µM (inactive). Also, the GI50 is 6.22 µM (inactive) in the test on K562; 21.4 µM (inactive) in the test with COLO 205; 1.84 µM (inactive) in the test on A498; 8.41 µM (inactive) in the test with TK-10; 0.912 µM (active) with ACHN; 0.646 µM (active) in the test on HOP-62.

Consider `Nc1ccn(C2OC(CO)C(O)C2O)c(=O)c1` (stereo unspecified), for which the GI50 with CAKI-1 is 176 µM (inactive); in the test on MCF7, 188 µM (inactive); in the test with KM-20L2, 566 µM (inactive); in the test with DLD-1 it was 513 µM (inactive); in the test on COLO 205 it was 164 µM (inactive); in the test with HOP-62, 136 µM (inactive).

`CC1=C(CO)C(=O)O[C@@H]([C@@H](C)[C@H]2CC[C@H]3[C@@H]4C[C@H]5O[C@]56[C@@H](O)C=CC(=O)[C@]6(C)[C@H]4CC[C@]23C)C1` [WITHAFERIN A]: the GI50 was 0.463 µM (active) in the test on CAKI-1; 0.401 µM (active) in the test with 786-0; 0.392 µM (active) with KM-20L2; 1.91 µM (inactive) with OVCAR-5; 1.5 µM (inactive) in the test with M19-MEL; 0.303 µM (active) in the test on DLD-1. Besides, the GI50 was 0.193 µM (active) in the test on K562; 0.406 µM (active) with COLO 205; 0.641 µM (active) with TK-10; 1.7 µM (inactive) in the test on ACHN; 2.04 µM (inactive) in the test on HOP-62.
